These results are taken from article PMC3341351, “Down-Regulation of GABAA Receptor via Promiscuity with the Vasoactive Peptide Urotensin II Receptor. Potential Involvement in Astrocyte Plasticity” (PLoS ONE, 2012).

Entries after “also recorded” stand apart in the source; their conditions may differ. Where no end group is shown, it is not given here.

For assay [1], the target named is T1, α2β3γ2 GABAAR co-expressed with human UT (Homo sapiens, UniProt Q9UKP6).
T1 construct: expressed in transfected cells; host or cells: CHO-K1 stably expressing human UT (pIRES-neo2-UT), transiently nucleofected with GABAAR subunit cDNAs
T1 sequence (Q9UKP6 1-389): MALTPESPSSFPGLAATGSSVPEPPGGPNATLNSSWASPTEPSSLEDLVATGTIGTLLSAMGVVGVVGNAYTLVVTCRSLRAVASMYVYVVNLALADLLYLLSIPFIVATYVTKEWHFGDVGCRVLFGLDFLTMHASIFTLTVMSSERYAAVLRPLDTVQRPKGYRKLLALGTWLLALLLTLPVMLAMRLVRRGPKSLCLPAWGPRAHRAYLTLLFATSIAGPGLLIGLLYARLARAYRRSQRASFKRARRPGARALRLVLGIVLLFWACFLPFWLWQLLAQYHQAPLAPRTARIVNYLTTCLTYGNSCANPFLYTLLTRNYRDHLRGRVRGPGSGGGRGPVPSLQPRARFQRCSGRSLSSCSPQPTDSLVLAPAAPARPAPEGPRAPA
The experiment in a line: Patch-clamp of Iso-evoked current in CHO-UT co-expressing α2β3γ2 GABAAR (CHO-UT-GABAAR). The assay is classed as cell-based. As to the method:
(§1) CHO-K1 cell lines were obtained from American Type Culture Collection (Manassas, VA, USA). The human UT stable CHO (CHO-UT) was generously provided by Dr Christophe Dubessy (Inserm, Rouen University, France) et generated by CHO electroporation with 20 µg pIRES-neo2-UT DNA and 500 µg sterile sonicated salmon sperm DNA using the EasyJect One electroporation system (Equibio, Angleur, Belgium), followed by repetitive rounds of limiting dilution of cells in G-418 (400 µg/ml) for selection. Normal or stable CHO was grown in Ham-F12 medium supplemented with 10% FBS, 1% antibiotic-antimicotic solution and 2 mM glutamine, at 37°C in a humidified incubator with an atmosphere of 5% CO2. The stable CHO-UT medium was supplemented with the antibiotic G-418 (40 µg/ml).
(§2) For transfection, cells were trypsinized (0.05%), triturated in HamF-12 containing 10% FBS media, pelleted by centrifugation, resuspended in 100 µl solution V for nucleofection by an Amaxa Nucleofector Device (Köln, Germany; set to program U-016). Experiments were performed on normal CHO or on the stable CHO-UT cells and transiently transfected with combinations of cDNA encoding α2β3γ2, α2β3γ1, α2β1γ2, α2β3γ1, α2β3, β3γ2 (4 µg of cDNA total/transfection) GABAAR subunits. Cells were seeded on 14-mm poly-L-lysine-coated glass bottom insert dishes at 5×10^5 cells in a volume of 0.5 ml/dish. Cells were incubated overnight at 37°C in a humidified incubator (5% CO2) during 16 h before electrophysiological or immunocytochemical experiments.
(§3) GABAA receptor cDNA clones; α2, β1, β3, γ1 and γ2L engineered into the expression vector pCDM8 ([…], β1, γ2) or pcDNA/Amp (β3, γ1), were generously provided by Dr Wingrove (Merk Sharp and Dohme, Harlow, UK). To obtain β3 ^HA or γ2 ^HA epitope-tagged subunits, β3 or γ2 cDNA was amplified and the PCR product was subcloned using the SalI and NotI sites of pCMV-HA (Table S2) after digestion by the same restriction enzymes.
(§4) The conventional whole-cell configuration of the patch-clamp technique was used to study the GABA-gated currents in astrocytes and granule neurons, UT stably transfected CHO, CHO-UT, and CHO transiently transfected with diverse variants of UT and GABAAR subunits. After 24-h transfection, cell culture coverslips were placed in a small chamber (1.5 ml) on a stage of a right microscope DMLFSA (Leica, Heidelberg, Germany) and superfused continuously with the following bath solution containing (in mM): NaCl, 150; KCl, 2.5; HEPES, 5; CaCl2, 2; MgCl2, 1; glucose, 10 (pH 7.4 adjusted with NaOH). The patch pipettes were fabricated from 1.5 mm (outer diameter) soft glass tubes on a two-step vertical pipette puller (List-Medical, L/M-3P-A, Darmstadt, Germany). […] ATP and GTP were added to the internal solution used to fill electrode just before recording. All recordings were obtained at RT with cells voltage-clamped at −70 mV. The GABAA receptor agonist isoguvacine was prepared in the extracellular solution and was applied to cells by pneumatic pressure ejection. To prevent desenzitization, isoguvacine was more often ejected during 5 s at 2-min intervals. ATP, GTP, or guanosine 5′-O-(2-thiodiphosphate) (GDPβS) were administered through the patch pipette solution. We investigated the effect of competitive inhibition of GDP-GTP exchange by including GDPβS in the pipette solution (in addition to the normal amount of GTP). For GDPβS and the KIC, immediately following patch rupture, GABA current recordings were performed and the experiment was commenced after an equilibration period of 15 min.
All peptide ligands, inhibitors or allosteric modulators of the GABAA receptor function were applied via gravity through a plastic tubing positioned in the vicinity of the cell body in order to maintain a sustained perfusion. In these conditions, drugs could reach the cell of interest after 30 s of perfusion. Isoguvacine was applied focally by pneumatic pressure ejection from a micropipette.
A general note: The patch-clamp technique gives a direct electrical read-out from membranes.

For assay [2], the system named is α2β3γ2 GABAAR in the absence of UT. In words: Patch-clamp of Iso-evoked current in CHO expressing α2β3γ2 GABAAR without UT. The assay is classed as cell-based. The note with it: DMCM 10^−5 M; hUII and URP 10^−8 M; [Orn^5]-URP and palosuran 10^−6 M; Iso 10^−4 M, 2 s; n = 3–18. As to the method:
as §2, §3
as §4, with “min. […]” for “min.”

Assay [3] has as its target T2, human UT (Homo sapiens, UniProt Q9UKP6).
T2 construct: expressed in transfected cells; host or cells: CHO-K1 electroporated with pIRES-neo2-UT, G-418 selected
T2 sequence (Q9UKP6 1-389): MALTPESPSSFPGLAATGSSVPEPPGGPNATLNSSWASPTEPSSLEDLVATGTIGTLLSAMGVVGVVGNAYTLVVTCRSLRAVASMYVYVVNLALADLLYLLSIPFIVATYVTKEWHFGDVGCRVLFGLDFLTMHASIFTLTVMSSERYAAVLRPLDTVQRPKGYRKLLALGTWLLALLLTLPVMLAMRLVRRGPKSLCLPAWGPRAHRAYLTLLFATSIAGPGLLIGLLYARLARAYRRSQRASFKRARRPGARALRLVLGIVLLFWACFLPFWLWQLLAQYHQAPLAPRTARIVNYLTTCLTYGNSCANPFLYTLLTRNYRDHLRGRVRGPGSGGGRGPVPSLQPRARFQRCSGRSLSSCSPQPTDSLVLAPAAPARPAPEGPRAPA
In words: Fura-2 calcium imaging ([Ca^2+]c) in CHO-UT. The assay is classed as cell-based. The method, then:
as §1
For cell calcium imaging, Fura-2 AM (5 mM, Molecular Probe; Fisher, Cergy-Pontoise, France) was dissolved in 20% pluronic F-127 (w/v, DMSO) and then added to culture medium at final concentrations of 5 µM and 0.02%, with 2.5 mM probenecid (Sigma-Aldrich) respectively. Cells were incubated in the dye solution for 1 h in an humidified atmosphere (37°C, 5% CO2) and then rinsed in the standard extracellular solution used for patch-clamp experiments. For simultaneous measurements of intracellular calcium and chloride-evoked currents in CHO, patch-clamp electrodes were filled with an internal solution containing : KCl, 140; MgCl2, 4; Fura-2-pentoK, 0.25; HEPES, 10; ATP, 1; GTP, 0.1 (pH 7.4 adjusted with KOH). Fluorescence images were acquired with the right microscope DMLFSA (Leica) equipped with a digital CCD camera Coolsnap HQ (Photometrics, Roper scientific, Evry, France). A high-speed scanning polychromatic light source was used for alternate excitations at wavelenghts of 340 and 380 nm. The fluorescence intensities at both wavelenghts (F340 and F380) were mesured every 500 ms. Image acquisition and analysis were obtained with a MetaFluor/Metamorph Imaging System (Roper scientific). The ratio between the two images was proportional to the [Ca^2+]c in the cell under study. Before an experiment, the bath ground level of fluorescence (attributable to autofluorescence and camera noise) was determined and systematically substracted.

Assay [4] addresses T2, human UT. The note with it: ref [54], [55]; cited from earlier work.
The target in assay [5] is T3, human urotensin II receptor UT, stably expressed in CHO (CHO-UT) (human) (UniProt Q9UKP6).
T3 sequence: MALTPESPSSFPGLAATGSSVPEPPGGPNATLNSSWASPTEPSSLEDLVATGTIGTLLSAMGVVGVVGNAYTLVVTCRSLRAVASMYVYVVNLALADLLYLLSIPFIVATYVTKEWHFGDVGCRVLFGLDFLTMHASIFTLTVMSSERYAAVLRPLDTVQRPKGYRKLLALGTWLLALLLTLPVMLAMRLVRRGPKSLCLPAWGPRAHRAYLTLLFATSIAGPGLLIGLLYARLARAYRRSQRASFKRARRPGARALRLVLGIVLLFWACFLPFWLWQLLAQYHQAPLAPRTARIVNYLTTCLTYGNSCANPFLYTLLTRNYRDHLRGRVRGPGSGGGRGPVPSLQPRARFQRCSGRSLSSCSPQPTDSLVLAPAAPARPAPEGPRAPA

Assay [6] addresses T3, human urotensin II receptor UT, stably expressed in CHO (CHO-UT) (human). The source holds these as a separate data set.

As for `Cc1cc(NC(=O)NCCN2CCC(O)(Cc3ccccc3)CC2)c2ccccc2n1.O=S(=O)(O)O` [palosuran, 1-[2-(4-benzyl-4-hydroxy-piperidin-1-yl)-ethyl]-3-(2-methyl-quinolin-4-yl) -urea sulfate salt], the “Effect of UT antagonist alone on Iso-evoked current” value in assay [1] (10^−6 M, n = 7–54) is recorded as “mimicked the hUII-induced inhibition of the Iso-evoked current; also recorded: mimics the effect of UII by inhibiting the chloride current”. Moreover, the “Effect on prolonged/irreversible action of hUII during washout on Iso-evoked current” value in assay [1] (antagonist 10^−6 M with hUII) is given as “abolished the irreversible action of hUII during washout”. In assay [2], the “Effect on Iso-evoked current in the absence of UT” value was “did not modulate the Iso-evoked current”. Also, in assay [3] (10^−6 M), the “Effect/profile of antagonist on [Ca^2+]c” value is “failed to evoke a [Ca^2+]c rise”. Also, the “Effect on hUII-induced [Ca^2+]c increase” value in assay [3] (antagonist 10^−6 M before and during hUII) was “completely blocked the hUII-induced [Ca^2+]c increase; also recorded: counteracts the UII-evoked [Ca^2+]c increase”. Moreover, the “Affinity toward human UT” value in assay [4] is given as “high affinity”.
Consider “URP: paralog urotensin II-related peptide sharing the fully conserved C-terminal cyclic CFWKYC core”, for which the “Inhibition of Iso-evoked current” value in assay [1] (10^−8 M, Iso 10^−4 M, mean ± SEM, hUII n = 54, URP n = 12) is recorded as 22.9±3.5%. Further, in assay [1] (10^−8 M, Iso-evoked current), the “Persistence/reversibility of current inhibition during washout” value is “slightly recovered during washout; also recorded: triggers a reversible inhibition”. In assay [2], the “Effect on Iso-evoked current in the absence of UT” value is on record as “failed to affect the amplitude of the current”. Also, the “Reversibility of [Ca^2+]c increase during washout” value in assay [3] (10^−8 M) is reported as “totally recovered after 16-min washout; also recorded: recovered to the basal line level”. Also, in assay [3] (hUII and URP 10^−8 M, [Orn^5]-URP 10^−6 M, mean from 9 to 25 cells), the “Increase of the amplitude of baseline [Ca^2+]c” value was 341%.
[Orn^5]-URP (peptide): in assay [5], the [Ca^2+]c increase (Fura-2 imaging) in CHO-UT, [Orn^5]-URP 10^-6 M; behaved as a partial agonist and prevented the sustained effect of hUII on [Ca^2+]c was 265%.
In the case of ACFWKYCV (also: cyclic CFWKYC core, bridge type not given here) [urotensin II-related peptide], the inhibition of the isoguvacine-evoked chloride current (whole-cell patch clamp) in CHO-UT co-expressing alpha2beta3gamma2 GABAAR, URP 10^-8 M (n = 12) in assay [6] was 22.9%. Also, the increase of the amplitude of baseline [Ca^2+]c (Fura-2 imaging) in CHO-UT, URP 10^-8 M in the bath; recovered after 16-min washout in assay [5] amounted to 341%.
